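Following 48 hours of exposure in 96-well plates, responses at five concentrations were used to interpolate endpoints linearly. GI50: concentration for 50% inhibition of growth. The concentration for full growth arrest is given as TGI.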
Legend:
Assay in all cases: growth of human tumour cells (NCI), 48 h
[1] = test system: 786-0 renal
[2] = test system: A498 renal
[3] = test system: A549 NSCLC
[4] = test system: ACHN renal
[5] = test system: BT-549 breast
[6] = test system: CAKI-1 renal
[7] = test system: CCRF-CEM leukemia
[8] = test system: COLO 205 colon
[9] = test system: DU-145 prostate
[10] = test system: EKVX NSCLC
[11] = test system: HCC-2998 colon
[12] = test system: HCT-116 colon
[13] = test system: HCT-15 colon
[14] = test system: HL-60(TB) leukemia
[15] = test system: HOP-62 NSCLC
[16] = test system: HOP-92 NSCLC
[17] = test system: HS 578T breast
[18] = test system: HT29 colon
[19] = test system: IGROV1 ovarian
[20] = test system: K-562 leukemia
[21] = test system: KM12 colon
[22] = test system: LOX IMVI melanoma
[23] = test system: M14 melanoma
[24] = test system: MCF7 breast
[25] = test system: MDA-MB-231 breast
[26] = test system: MDA-MB-435
[27] = test system: MOLT-4 leukemia
[28] = test system: NCI-H226 lung
[29] = test system: NCI-H23 lung
[30] = test system: NCI-H460 lung
[31] = test system: NCI-H522 lung
[32] = test system: NCI/ADR-RES ovarian
[33] = test system: OVCAR-3 ovarian
[34] = test system: OVCAR-4 ovarian
[35] = test system: OVCAR-5 ovarian
[36] = test system: OVCAR-8 ovarian
[37] = test system: PC-3 prostate
[38] = test system: RPMI-8226 leukemia
[39] = test system: RXF 393 renal
[40] = test system: SF-268 CNS
[41] = test system: SF-295 CNS
[42] = test system: SF-539 CNS
[43] = test system: SK-MEL-2 melanoma
[44] = test system: SK-MEL-28 melanoma
[45] = test system: SK-MEL-5 melanoma
[46] = test system: SK-OV-3 ovarian
[47] = test system: SN12C renal
[48] = test system: SNB-19 CNS
[49] = test system: SNB-75 CNS
[50] = test system: SR leukemia
[51] = test system: SW-620 colon
[52] = test system: T-47D breast
[53] = test system: TK-10 renal
[54] = test system: U251 CNS
[55] = test system: UACC-257 melanoma
[56] = test system: UACC-62 melanoma
[57] = test system: UO-31 renal
[58] = test system: MALME-3M melanoma

Nc1ccc2c(c1)Cc1cc(Cl)c(Cl)cc1-2
GI50 [1]: > 100 µM | TGI [1]: > 100 µM | GI50 [2]: 4.78 µM | TGI [2]: > 100 µM | GI50 [3]: 7.72 µM | TGI [3]: > 100 µM | GI50 [4]: 7.06 µM | TGI [4]: > 100 µM | GI50 [5]: > 100 µM | TGI [5]: > 100 µM | GI50 [6]: 3.76 µM | TGI [6]: > 100 µM | GI50 [7]: 7.73 µM | TGI [7]: > 100 µM | GI50 [8]: 22.2 µM | TGI [8]: > 100 µM | GI50 [9]: 6.24 µM | TGI [9]: > 100 µM | GI50 [10]: 1.94 µM | TGI [10]: 8.82 µM | GI50 [11]: 9.19 µM | TGI [11]: > 100 µM | GI50 [12]: 6.81 µM | TGI [12]: > 100 µM | GI50 [13]: 6.22 µM | TGI [13]: > 100 µM | GI50 [14]: 55 µM | TGI [14]: > 100 µM | GI50 [15]: > 100 µM | TGI [15]: > 100 µM | GI50 [16]: 97.9 µM | TGI [16]: > 100 µM | GI50 [17]: 5.79 µM | TGI [17]: > 100 µM | GI50 [18]: > 100 µM | TGI [18]: > 100 µM | GI50 [19]: 17.7 µM | TGI [19]: > 100 µM | GI50 [20]: > 100 µM | TGI [20]: > 100 µM | GI50 [21]: 7.05 µM | TGI [21]: > 100 µM | GI50 [22]: 65.6 µM | TGI [22]: > 100 µM | GI50 [23]: 3.55 µM | TGI [23]: > 100 µM | GI50 [24]: 0.562 µM | TGI [24]: > 100 µM | GI50 [25]: 6.39 µM | TGI [25]: > 100 µM | GI50 [26]: 1.77 µM | TGI [26]: 4.51 µM | GI50 [27]: > 100 µM | TGI [27]: > 100 µM | GI50 [28]: > 100 µM | TGI [28]: > 100 µM | GI50 [29]: > 100 µM | TGI [29]: > 100 µM | GI50 [30]: 5.12 µM | TGI [30]: > 100 µM | GI50 [31]: > 100 µM | TGI [31]: > 100 µM | GI50 [32]: 62.2 µM | TGI [32]: > 100 µM | GI50 [33]: 3.17 µM | TGI [33]: 87.8 µM | GI50 [34]: > 100 µM | TGI [34]: > 100 µM | GI50 [35]: > 100 µM | TGI [35]: > 100 µM | GI50 [36]: > 100 µM | TGI [36]: > 100 µM | GI50 [37]: > 100 µM | TGI [37]: > 100 µM | GI50 [38]: 57.6 µM | TGI [38]: > 100 µM | GI50 [39]: 6.07 µM | TGI [39]: > 100 µM | GI50 [40]: > 100 µM | TGI [40]: > 100 µM | GI50 [41]: 2.25 µM | TGI [41]: 7.15 µM | GI50 [42]: 57.3 µM | TGI [42]: > 100 µM | GI50 [43]: > 100 µM | TGI [43]: > 100 µM | GI50 [44]: > 100 µM | TGI [44]: > 100 µM | GI50 [45]: 8.17 µM | TGI [45]: > 100 µM | GI50 [46]: 8.03 µM | TGI [46]: > 100 µM | GI50 [47]: 11.9 µM | TGI [47]: > 100 µM | GI50 [48]: 5.96 µM | TGI [48]: > 100 µM | GI50 [49]: 67.8 µM | TGI [49]: > 100 µM | GI50 [50]: 26.9 µM | TGI [50]: > 100 µM | GI50 [51]: 5.43 µM | TGI [51]: > 100 µM | GI50 [52]: > 100 µM | TGI [52]: > 100 µM | GI50 [53]: > 100 µM | TGI [53]: > 100 µM | GI50 [54]: 5.56 µM | TGI [54]: > 100 µM | GI50 [55]: > 100 µM | TGI [55]: > 100 µM | GI50 [56]: 12.8 µM | TGI [56]: > 100 µM | GI50 [57]: 6.01 µM | TGI [57]: > 100 µM

CCN(CC)c1ccc(N=O)cc1
GI50 [1]: 7.46 µM | TGI [1]: 23.6 µM | GI50 [2]: 13.6 µM | TGI [2]: 38.5 µM | GI50 [3]: 2.07 µM | TGI [3]: 5.56 µM | GI50 [4]: 2.61 µM | TGI [4]: 11.1 µM | GI50 [5]: 16.6 µM | TGI [5]: 30.5 µM | GI50 [6]: 1.29 µM | TGI [6]: 3.83 µM | GI50 [7]: 0.937 µM | TGI [7]: 13 µM | GI50 [8]: 1.98 µM | TGI [8]: 5.46 µM | GI50 [9]: 6.43 µM | TGI [9]: 19.9 µM | GI50 [10]: 10.2 µM | TGI [10]: 26.8 µM | GI50 [12]: 1.82 µM | TGI [12]: 4.71 µM | GI50 [13]: 2.26 µM | TGI [13]: 12.8 µM | GI50 [14]: 2.85 µM | TGI [14]: 13.6 µM | GI50 [15]: 2.78 µM | TGI [15]: 11.8 µM | GI50 [16]: 2.18 µM | TGI [16]: 7.73 µM | GI50 [17]: 10.2 µM | TGI [17]: > 100 µM | GI50 [18]: 1.27 µM | TGI [18]: 4.3 µM | GI50 [19]: 2.05 µM | TGI [19]: 6.41 µM | GI50 [20]: 2.23 µM | TGI [20]: 15.9 µM | GI50 [21]: 3.39 µM | TGI [21]: 13.1 µM | GI50 [22]: 1.67 µM | TGI [22]: 3.53 µM | GI50 [23]: 3.47 µM | TGI [23]: 14.4 µM | GI50 [58]: 1.59 µM | TGI [58]: 4.46 µM | GI50 [24]: 2.76 µM | TGI [24]: 11.8 µM | GI50 [25]: 5.29 µM | TGI [25]: 20.9 µM | GI50 [26]: 2.72 µM | TGI [26]: 11.9 µM | GI50 [27]: 3.34 µM | TGI [27]: 30.1 µM | GI50 [28]: 13.6 µM | TGI [28]: 38.4 µM | GI50 [29]: 1.95 µM | TGI [29]: 5.32 µM | GI50 [30]: 5.12 µM | TGI [30]: 34.2 µM | GI50 [32]: 2.33 µM | TGI [32]: 7 µM | GI50 [33]: 1.97 µM | TGI [33]: 4.61 µM | GI50 [34]: 3.26 µM | TGI [34]: 13.5 µM | GI50 [35]: 3.51 µM | TGI [35]: 14.3 µM | GI50 [36]: 3.14 µM | TGI [36]: 12.3 µM | GI50 [37]: 3.14 µM | TGI [37]: 12.1 µM | GI50 [38]: 2.09 µM | TGI [38]: 6.33 µM | GI50 [39]: 2.46 µM | TGI [39]: 7.45 µM | GI50 [40]: 5.53 µM | TGI [40]: 20.9 µM | GI50 [41]: 4.87 µM | TGI [41]: 20.5 µM | GI50 [42]: 2.96 µM | TGI [42]: 10.1 µM | GI50 [43]: 8.39 µM | TGI [43]: 22 µM | GI50 [44]: 10.7 µM | TGI [44]: 23 µM | GI50 [45]: 2.47 µM | TGI [45]: 7.38 µM | GI50 [46]: 12.4 µM | TGI [46]: 29.3 µM | GI50 [47]: 4.24 µM | TGI [47]: 17.2 µM | GI50 [48]: 12.8 µM | TGI [48]: 29.9 µM | GI50 [49]: 3.47 µM | TGI [49]: 16.9 µM | GI50 [50]: 3.74 µM | TGI [50]: 46.2 µM | GI50 [51]: 1.71 µM | TGI [51]: 5.53 µM | GI50 [52]: 2.89 µM | TGI [52]: 16.7 µM | GI50 [53]: 2.79 µM | TGI [53]: 10.8 µM | GI50 [54]: 1.14 µM | TGI [54]: 2.73 µM | GI50 [55]: 1.82 µM | TGI [55]: 4.15 µM | GI50 [56]: 6.66 µM | TGI [56]: 23.5 µM | GI50 [57]: 1.21 µM | TGI [57]: 3.81 µM

From PubChem BioAssay (NCI)
